Reference: patent EP4678629A1, “IONIZABLE LIPID MOLECULE, PREPARATION METHOD THEREFOR AND USE THEREOF” (Maxirna (Shanghai) Pharmaceutical Co., Ltd., priority 2023, dated 2024)

Assays:
DC2.4 cells = experiment: In vitro transfection of cells with eGFP-mRNA lipid nanoparticle (LNP preparation), fluorescence imaging and flow cytometry; format: cell-based, mouse; conditions: for Cell viability, % / Positive rate, %: DC2.4 cells, 200 ng of mRNA per well, after 24 hours; for Positive rate, %: eGFP positivity rate; for Mean fluorescence intensity: eGFP-mRNA expression on DC2.4 after 24 hours, normalized based on Example 11
Text: (§1) This example used mouse bone marrow-derived dendritic cells DC2.4 (purchased from Millipore) as the validation cell line for a lipid nanoparticle transfection experiment. DC2.4 cells adhered to the wall for growth. All operational steps of cell culture strictly followed the prescribed procedures, using sterile reagents for aseptic operations under a sterile workbench. The main operational steps involved were as follows: • 1) Cell recovery: the preserved cell cryopreservation solution was removed from the -80 °C freezer and immediately placed in a 37 °C water bath for rapid and continuous shaking, allowing it to completely melt within one minute. Fresh culture medium was added to a 15 mL centrifuge tube in advance, and the cell fluid was added to the centrifuge tube in a biosafety cabinet. A centrifuge tube of the same mass was taken, placed symmetrically in the centrifuge, and centrifuged at low speed for 5 minutes at 1200 rpm. After centrifugation, the upper clear liquid was removed, and an appropriate amount of culture medium was slowly added along the tube wall. After the cells were gently blown and dispersed evenly, the cell suspension was drawn and added to the prepared culture bottle. The state and distribution of cells in the early stage of recovery were observed under a microscope. The culture bottle was incubated in a 5% CO2 incubator at 37 °C, and the recovery time was recorded. • 2) Cell passaging: Under a microscope, if the cell density in the field of view reached 80%-90%, cells could be passaged and cultured. Adherent cells required trypsin digestion. In order to avoid residual serum in the culture medium reducing trypsin activity, the original culture medium was removed, and DPBS solution was added to wash once. After suctioning out the DPBS solution, trypsin was added to degrade the protein at the intercellular junction, thereby separating the cells and facilitating further cultivation. The mixture was gently shaken well and placed into the incubator for digestion for 2-3 minutes. After digestion was complete, an appropriate amount of culture medium was immediately added to the original culture dish to terminate digestion. Finally, a pipette was used to carefully blow off the cells and blow them until they were evenly dispersed, and then the cells were inoculated and subcultured in a certain proportion according to experimental requirements.
(§2) Transfection of DC2.4 cells • 1) DC2.4 cell recovery: the frozen DC2.4 cells were taken out from the -80 °C refrigerator and immediately put into a 37 °C water bath for rapid thawing. After melting, they were added to the preheated culture medium, and centrifuged at 1200 rpm for 5 minutes. The supernatant was discarded, and an appropriate amount of DMEM medium containing 10% FBS was added to resuspend the recovered DC2.4 cells, which were placed in a 37 °C, 5% CO2 incubator for activation culture. • 2) According to experimental requirements, DC2.4 cells were transfected into 24 well plates one day in advance. By counting cells, the number and viability of cells were recorded, and a cell suspension with 2 × 10^5 cells per well were taken. Then, a certain volume of DMEM medium containing 10% FBS was added and mixed evenly, wherein 1 mL was added per well for subsequent transfection experiments. • 3) After 24 hours, the culture medium was gently aspirated with a pipette 30 minutes in advance, and each well was washed with 1 mL of DPBS and aspirated. […] The mixture was placed in a 37 °C, 5% CO2 incubator for activation cultivation. • 6) After 24 hours, cell viability (%), eGFP positivity rate (%), and mean fluorescence intensity data were obtained through cell fluorescence imaging and flow cytometry.

[1] = Encapsulation efficiency of the lipid nanoparticle (eGFP mRNA) by Ribogreen method; format: physicochemical; conditions: LNP encapsulating eGFP mRNA, ionizable lipid/DOPE/cholesterol/DMG-PEG2000 50/10/48.25/1.25 mol%, N/P 12
Experimental: (§3) The ionizable lipid compound and positive control 1 from Example I were dissolved in ethanol at a molar ratio of 50:10:48.25:1.25 with DOPE, cholesterol, and DMG-PEG2000 (all purchased from A.V.T (Shanghai) Pharmaceutical Co., Ltd.) to prepare an ethanol lipid solution. The enhanced green fluorescent protein (eGFP) mRNA was diluted in 20 mM citrate buffer (pH=6.1) to obtain an mRNA aqueous solution. By using a microfluidic device (Micro&Nano Biologics Co., Ltd., model: INano ™ L) mix ethanol lipid solution and mRNA aqueous solution in a volume ratio of 1:3 to prepare a lipid nanoparticle with a total lipid to mRNA N/P ratio of 12. The medium was replaced by ultrafiltration, ethanol was removed and volumed with DPBS. Finally, the lipid nanoparticle was filtered through a 0.2 µm sterile filter to obtain an LNP preparation encapsulating eGFP mRNA using ionizable lipid/DOPE/cholesterol/DMG-PEG2000 (50/10/48.25/1.25 mol%), with an mRNA content of 0.002 mg/ml-0.5 mg/mL.
(§4) Using Malvern Zetasizer Nano ZS (Malvern UK), the size and polydispersity index (PDI) of the lipid nanoparticle were determined by dynamic light scattering in 173° backscatter detection mode, and the encapsulation efficiency was measured by Ribogreen method.

[2] = Size and polydispersity index (PDI) of the lipid nanoparticle by dynamic light scattering; format: physicochemical; conditions: LNP encapsulating eGFP mRNA, ionizable lipid/DOPE/cholesterol/DMG-PEG2000 50/10/48.25/1.25 mol%, N/P 12; for Particle size: in nm (unit assumed)
Experimental: as §3, §4

[3] = In vitro transfection of cells with eGFP-mRNA lipid nanoparticle (LNP preparation), fluorescence imaging and flow cytometry; format: cell-based, mouse; conditions: mouse, dc2.4 cells, 200 ng of mRNA per well, after 24 hours; read-out: Cell viability, %
Text: as §1, §2

Molecule	Cell viability, % (DC2.4 cells)	Positive rate, % (DC2.4 cells)	Mean fluorescence intensity (DC2.4 cells)	Encapsulation rate, % [1]	PDI [2]	Particle size [2]	viability at 24 h [3]	Cell viability, % (DC2.4 cells; 1440 min)
4,4'-(3-(((2-hydroxyethyl)((E)-4-oxo-4-(undecyloxy)but-2-en-1-yl)amino)propyl)azadiyl)(2E,2'E)-di(but-2-enoic acid) [Example 105]	95.8%	78.32%	0.39	66.08%	0.24	–	–	–
4,4'-didecyl((4-(decyloxy)-4-oxobutyl)(3-hydroxypropyl)amino)butyl)azetidinyl)dibutanoate [Example 102]	94.6%	93.18%	1.28	93.93%	0.12	94.58	–	–
8-((6Z,10Z,46Z,49Z)-30-(3-hydroxypropyl)-20,36-dioxo-26,30-diaza-19,37-dioxapentatriacontane-6,9,46,49-tetraen-26-yl)(7Z,10Z)-hexadec-7,10-dien-1-yl octanoate [Example 96]	96.6%	94.64%	0.97	93.34%	0.13	89.25	–	–
CCCCCCCCC(CCCCCCCC)OC(=O)CCCCCCCN(CCO)CCCN(CCCCCCCC(=O)OC(CCCCCCCC)CCCCCCCC)CCCCCCCC(=O)OC(CCCCCCCC)CCCCCCCC [Example 2, Di(heptadecane-9-yl)8,8'-((3-((8-(heptadecane-9-oxy)-8-oxooctyl)(2-hydroxyethyl)amino)propyl)azanediyl)dioctanoate]	–	73.48%	–	97.27%	0.24	–	82.9%	–
CC(C)=CCC/C(C)=C/COC(=O)CCCCCCCN(CCO)CCCN(CCCCCCCC(=O)OC/C=C(\C)CCC=C(C)C)CCCCCCCC(=O)OC/C=C(\C)CCC=C(C)C [Example 3, Di((E)-3,7-dimethyloctan-2,6-dien-1-yl)8,8'-((3-((8-(((E)-3,7-dimethyloctan-2,6-dien-1-yl)oxo)-8-oxooctyl)(2-hydroxyethyl)amino)propyl)azanediyl)dioctanoate]	–	93.43%	–	95.96%	0.12	92.13	68.6%	–
CCCCCCCOC(=O)CCCCCCCN(CCO)CCCN(CCCCCCCC(=O)OCCCCCCC)CCCCCCCC(=O)OCCCCCCC [Example 4, Diheptyl 8,8'-((3-((8-(heptyloxy)-8-oxooctyl)(2-hydroxyethyl)amino)propyl)azanediyl)dioctanoate]	–	78.26%	–	60.89%	0.25	–	75.9%	–
CCCCCOC(=O)CCCCCCCN(CCO)CCCN(CCCCCCCC(=O)OCCCCC)CCCCCCCC(=O)OCCCCC [Example 5, Dipentyl 8,8'-((3-((2-hydroxyethyl)(8-oxo-8-(pentyloxy)octyl)amino)propyl)azanediyl)dioctanoate]	–	83.41%	–	94.14%	0.16	–	86.6%	–
CCCCCCCCCCCOC(=O)CCCCN(CCO)CCCN(CCCCC(=O)OCCCCCCCCCCC)CCCCC(=O)OCCCCCCCCCCC [Example 38, Diundecyl 5,5'-((3-((2-hydroxyethyl)(5-oxo-5-(undecyloxy)pentyl)amino)propyl)azadiyl)dipentanoate]	–	90.28%	–	99.04%	0.10	65.19	–	94.1%
CCCCC/C=C\C/C=C\CCCCCCCCOC(=O)CCCCCCCN(CCO)CCCN(CCCCCCCC(=O)OCCCCCCCC/C=C\C/C=C\CCCCC)CCCCCCCC(=O)OCCCCCCCC/C=C\C/C=C\CCCCC [Example 79]	–	95.05%	–	99.80%	70.67	99.80	–	95.0%
CCCCCCCCCCCCOC(=O)CCCN(CCCO)CCCCN(CCCC(=O)OCCCCCCCCCCCC)CCCC(=O)OCCCCCCCCCCCC [Example 84]	–	96.42%	–	97.58%	0.11	89.72	–	90.2%
CCCCCCCCCCCCCOC(=O)CCCN(CCCO)CCCCN(CCCC(=O)OCCCCCCCCCCCCC)CCCC(=O)OCCCCCCCCCCCCC [Example 85, 4,4'-((4-((3-hydroxypropyl)(4-oxo-4-(tridecyloxy)butyl)amino)butyl)azetidinyl)dibutyric acid diester]	–	96.2%	–	93.32%	0.10	–	–	95.9%
CCCCCCCCCCCCCOC(=O)CCCCCCCN(CCO)CCCN(CCCCCCCC(=O)OCCCCCCCCCCCCC)CCCCCCCC(=O)OCCCCCCCCCCCCC [Example 90, Tridecyl 8-(29-hydroxy-15-oxo-23-(8-oxo-8-(tridecyloxy)octyl)-23,27-diaza-14-oxanonacosane-27-yl)octanoate]	–	92.38%	–	94.33%	0.14	84.42	–	91.6%
CCCCCCCCCCCOC(=O)CCCCCCCCCN(CCO)CCCN(CCCCCCCCCC(=O)OCCCCCCCCCCC)CCCCCCCCCC(=O)OCCCCCCCCCCC [Example 91, Undecyl 10-(29-hydroxy-13-oxo-23-(10-oxo-10-(undecyl)oxydecyl)-23,27-diaza-12-oxanonacosane-27-yl)caprate]	–	62.74%	–	79.63%	0.24	–	–	91.4%
CCCCCC/C=C\COC(=O)CCCCCCCCCN(CCO)CCCN(CCCCCCCCCC(=O)OC/C=C\CCCCCC)CCCCCCCCCC(=O)OC/C=C\CCCCCC [Example 92, 10-((7Z)-27-hydroxy-21-(10-(((2Z)-non-2-enyl)oxy)-10-oxodecyl)-11-oxo-21,25-diaza-10-oxaheptacosane-7-en-25-yl)decanoic acid-(2Z)-non-2-en-1-yl ester]	–	73.64%	–	76.22%	0.28	–	–	92.6%
CC/C=C\COC(=O)CCCCCCCN(CCO)CCCN(CCCCCCCC(=O)OC/C=C\CC)CCCCCCCC(=O)OC/C=C\CC [Example 97]	–	83.64%	–	67.68%	0.34	–	–	90.5%
Tetratridecyl 8,8',8",8"-(((3-hydroxypropyl)azadiyl)di(propane-3,1-diyl))di(azanetriyl)tetraoctanoate [Example 99]	93.2%	77.44%	0.49	69.17%	0.26	–	–	–
